Read-outs that look alike come from different tables or passages of the source.
Legend:
S. marcescens IFO-12648 = assay: Antimicrobial activity test: MIC by the agar plate dilution method, S. marcescens IFO-12648; assay type: cell-based
Protocol: (§1) In order to investigate the in vitro activity of the under-mentioned compounds against various bacteria, the minimal inhibitory concentration (MIC) values were determined by the agar plate dilution method [see Chemotherapy, 22, 1126-1128 (1974)].
(§2) Each test inoculum was adjusted to 1×10^6 cells/ml (O.D., 600 mμ: 0.07-0.16).

K. pneumoniae NCTC-9632 = assay: Antimicrobial activity test: MIC by the agar plate dilution method, K. pneumoniae NCTC-9632; assay type: cell-based; conditions: inoculum 1×10^6 cells/ml
Protocol: as §1, §2

M. morganii ATCC-25830 = assay: Antimicrobial activity test: MIC by the agar plate dilution method, M. morganii ATCC-25830; assay type: cell-based; conditions: inoculum 1×10^6 cells/ml
Protocol: as §1, §2

E. coli No. 29 = assay: Antimicrobial activity test: MIC by the agar plate dilution method, E. coli No. 29; assay type: cell-based
Protocol: as §1, §2

S. aureus FDA-209-p = assay: Antimicrobial activity test: MIC by the agar plate dilution method, S. aureus FDA-209-p; assay type: cell-based, Staphylococcus aureus; conditions: inoculum 1×10^6 cells/ml
Protocol: as §1, §2

P. mirabilis 1287 = assay: Antimicrobial activity test: MIC by the agar plate dilution method, P. mirabilis 1287; assay type: cell-based
Protocol: as §1, §2

P. aeruginosa NCTC-10490 = assay: Antimicrobial activity test: MIC by the agar plate dilution method, P. aeruginosa NCTC-10490; assay type: cell-based; conditions: inoculum 1×10^6 cells/ml
Protocol: as §1, §2

[1] = P. mirabilis 1287, inoculum 1×10^6 cells/ml
[2] = S. marcescens IFO-12648, inoculum 1×10^6 cells/ml
[3] = E. coli No. 29, inoculum 1×10^6 cells/ml

Substance	MIC (S. marcescens IFO-12648)	MIC (K. pneumoniae NCTC-9632)	MIC (M. morganii ATCC-25830)	MIC (E. coli No. 29)	MIC (S. aureus FDA-209-p)	MIC (P. mirabilis 1287; [1])	MIC (P. aeruginosa NCTC-10490)	MIC (S. marcescens IFO-12648; [2])	MIC (E. coli No. 29; [3])	MIC (P. mirabilis 1287)
1-Acetoxyethyl 7-[2-(2-aminothiazol-4-yl)-2-methoxyiminoacetamido]-3-[(1,3,4-thiadiazol-2-yl)thiomethyl]-Δ^3 -O-2-isocephem-4-carboxylate (syn-isomer) [Example 13]	0.78 µg/mL	0.78 µg/mL	0.39 µg/mL	0.39 µg/mL	0.39 µg/mL	0.1 µg/mL	0.78 µg/mL	–	–	–
7-2-(Thiazol-4-yl)-2-tert-butoxycarbonylmethoxyiminoacetamido]-Δ^3 -O-2-isocephem-4-carboxylic acid (syn-isomer) [Example 19]	–	≤ 0.025 µg/mL	≤ 0.025 µg/mL	–	0.39 µg/mL	≤ 0.025 µg/mL	3.13 µg/mL	0.05 µg/mL	≤ 0.025 µg/mL	–
7-[2-(2-Aminothiazol-4-yl)-2-(2-chloroethoxy)iminoacetamido]-3-[(1,3,4-thiadiazol-2-yl)thiomethyl]-Δ^3 -O-2-isocephem-4-carboxylic acid (syn-isomer) [No. 9]	0.78 µg/mL	0.39 µg/mL	0.78 µg/mL	–	0.05 µg/mL	–	0.78 µg/mL	–	0.2 µg/mL	0.39 µg/mL
7-[2-(2-Aminothiazol-4-yl)-2-(2-fluoroethoxy)iminoacetamido]-3-[(1,3,4-thiadiazol-2-yl)thiomethyl-]-Δ^3 -O-2-isocephem-4-carboxylic acid trifluoroacetate (syn-isomer) [Example 49]	–	≤ 0.025 µg/mL	≤ 0.025 µg/mL	–	–	≤ 0.025 µg/mL	1.56 µg/mL	0.1 µg/mL	≤ 0.025 µg/mL	–
7-[2-(2-Aminothiazol-4-yl)-2-[(pyrazol-3-yl)methoxyiminoacetamido]-3-[(1,3,4-thiadiazol-2-yl)thiomethyl]-Δ^3 -O-2-isocephem-4-carboxylic acid dihydrochloride (syn-isomer) [Example 24]	0.39 µg/mL	0.39 µg/mL	0.1 µg/mL	0.39 µg/mL	–	≤ 0.025 µg/mL	12.5 µg/mL	–	–	–
7-[2-(2-Chloroacetamidothiazol-4-yl)-2-methoxyiminoacetamido]-3-[(1,3,4-thiadiazol-2-yl)thiomethyl]-Δ^3 -O-2-isocephem-4-carboxylic acid (syn-isomer) [Example 11]	–	0.2 µg/mL	≤ 0.025 µg/mL	–	–	≤ 0.025 µg/mL	6.25 µg/mL	0.2 µg/mL	0.05 µg/mL	–
(6S,7S)-7-[2-(2-Aminothiazol-4-yl)-2-cyclopropylmethyloxyiminoacetamido]-3- [(1,2,3-thiadiazol-5-yl)thiomethyl]-Δ^3 -O-2-isocephem-4-carboxylic acid (syn-isomer) [Example 65]	0.78 µg/mL	0.39 µg/mL	0.05 µg/mL	–	–	0.2 µg/mL	0.78 µg/mL	–	0.1 µg/mL	–
Benzhydryl 7-[2-(2-formamidothiazol-4-yl)-2-(2-chloroethoxy)iminoacetamido-]-3-[(1,3,4-thiadiazol-2-yl)thiomethyl]-Δ^3 -O-2-isocephem-4-carboxylate (syn-isomer) [Example 32]	0.78 µg/mL	0.1 µg/mL	0.1 µg/mL	–	0.39 µg/mL	0.05 µg/mL	–	–	0.05 µg/mL	–
Benzhydryl 7-[2-(2-tritylaminothiazol-4-yl)-2 -methoxyiminoacetamido]-3-[(1,2,3-thiadiazol-5-yl)thiomethyl]-Δ^3 -O-2-isocephem-4-carboxylate (syn-isomer) [Example 51]	–	≤ 0.025 µg/mL	≤ 0.025 µg/mL	–	–	≤ 0.025 µg/mL	0.78 µg/mL	0.1 µg/mL	≤ 0.025 µg/mL	–
Benzhydryl 7-[2-(2-tritylaminothiazol-4-yl)-2-[(3-butenyl)oxyimino]acetamido]-3-[(1,3,4-thiadiazol-2-yl)thiomethyl]-Δ^3 -O-2-isocephem-4-carboxylate (syn-isomer) [Example 39]	0.78 µg/mL	0.2 µg/mL	0.39 µg/mL	–	–	0.2 µg/mL	1.56 µg/mL	–	0.2 µg/mL	–
Benzhydryl 7-[2-(2-tritylaminothiazol-4-yl)-2-allyloxyiminoacetamido]-3-[(1,3,4-thiadiazol-2-yl)thiomethyl]-Δ^3 -O-2-isocephem-4-carboxylate (syn-isomer) [Example 43]	–	0.78 µg/mL	1.56 µg/mL	0.39 µg/mL	–	0.1 µg/mL	50 µg/mL	6.25 µg/mL	–	–
Benzhydryl 7-[2-(2-tritylaminothiazol-4-yl)-2-benzyloxyiminoacetamido]-3-[(1,3,4-thiadiazol-2-yl)thiomethyl]-Δ^3 -O-2-isocephem-4-carboxylate (syn-isomer) [Example 47]	–	≤ 0.025 µg/mL	≤ 0.025 µg/mL	–	–	≤ 0.025 µg/mL	3.13 µg/mL	0.1 µg/mL	≤ 0.025 µg/mL	–
Benzhydryl 7-[2-(2-tritylaminothiazol-4-yl)-2-cyanomethyloxyiminoacetamido]-3-[(1,2,3-thiadiazol-5-yl)thiomethyl]-Δ^3 -O-2-isocephem-4-carboxylate (syn-isomer) [Example 52]	0.78 µg/mL	0.2 µg/mL	0.05 µg/mL	–	–	0.1 µg/mL	0.39 µg/mL	–	0.1 µg/mL	–
Benzhydryl 7-[2-(2-tritylaminothiazol-4-yl)-2-cyclopropylmethyloxyiminoacetamido]-3-[(1,2,3-thiadiazol-5-yl)thiomethyl]-Δ^3 -O-2-isocephem-4-carboxylate (syn-isomer) [Example 53]	0.78 µg/mL	–	0.05 µg/mL	–	–	0.1 µg/mL	0.39 µg/mL	–	0.05 µg/mL	–
Benzhydryl (6S,7S)-7-[2-(2-aminothiazol-4-yl)-2-cyclopropylmethyloxyiminoacetamido]-3-[(1,2,3-thiadiazol-5-yl)thiomethyl]-Δ^3 -O-2-isocephem-4-carboxylate (syn-isomer) [Example 64]	–	≤ 0.025 µg/mL	≤ 0.025 µg/mL	–	–	≤ 0.025 µg/mL	1.56 µg/mL	0.05 µg/mL	≤ 0.025 µg/mL	–
Benzhydryl (6S,7S)-7-[2-(2-tritylaminothiazol-4-yl)-2-cyclopropylmethyloxyiminoacetamido]-3-[(1,2,3-thiadiazol-5-yl)thiomethyl]-Δ^3 -O-2-isocephem-4-carboxylate (syn-isomer) [Example 63]	–	≤ 0.025 µg/mL	–	–	–	≤ 0.025 µg/mL	0.78 µg/mL	0.05 µg/mL	≤ 0.025 µg/mL	–
Benzhydryl (6S,7S)-7-[2-(2-tritylaminothiazol-4-yl)-2-methoxyiminoacetamido]-3-[(1,3,4-thiadiazol-2-yl)thiomethyl]-Δ^3 -O-2-isocephem-4-carboxylate (syn-isomer) [Example 58]	0.39 µg/mL	≤ 0.025 µg/mL	–	–	0.39 µg/mL	≤ 0.025 µg/mL	25 µg/mL	–	≤ 0.025 µg/mL	–
Benzhydryl (6S,7S)-7-[2-(2-tritylaminothiazol-4-yl)- 2-cyanomethoxyiminoacetamido]-3-[(1,3,4-thiadiazol-2-yl)thiomethyl]-Δ^3 -O-2-isocephem-4-carboxylate (syn-isomer) [Example 61]	0.78 µg/mL	0.05 µg/mL	≤ 0.025 µg/mL	–	–	≤ 0.025 µg/mL	3.13 µg/mL	–	0.05 µg/mL	–
Benzyl 7-[2-(2-chloroacetamidothiazol-4-yl)-2-methoxyiminoacetamido]-3-[(1,3,4-thiadiazol-2-yl)thiomethyl]-Δ^3 -O-2-isocephem-4-carboxylate (syn-isomer) [Example 10]	0.39 µg/mL	0.39 µg/mL	0.2 µg/mL	0.39 µg/mL	0.39 µg/mL	0.1 µg/mL	–	–	–	–
Benzyl 7-[2-(2-chloroacetamidothiazol-4-yl)-2-methoxyiminoacetamido]-3-[(carbamoyloxy)methyl]-Δ^3 -O-2-isocephem-4-carboxylate (syn-isomer) [Example 1]	–	–	–	–	–	≤ 0.025 µg/mL	3.13 µg/mL	0.1 µg/mL	≤ 0.025 µg/mL	–
Benzyl 7-[2-(2-chloroacetamidothiazol-4-yl)-2allyloxyiminoacetamido]-3-[(1,3,4-thiadiazol-2-yl)thiomethyl]-Δ^3 -O-2-isocephem-4-carboxylate (syn-isomer) [Example 14]	–	0.1 µg/mL	–	–	–	≤ 0.025 µg/mL	3.13 µg/mL	0.1 µg/mL	0.05 µg/mL	–
